# Where “and” joins values, the source holds several entries; their conditions need not be identical. Equal entries are not always repeated.
# Legend:
# [1] = Quantification of tamoxifen and seven metabolites in bone marrow plasma by LC-MS/MS; settings: for Mean concentration / Median concentration: bone marrow plasma, N = 406, ~ 8 months from tamoxifen initiation
# Protocol: During the isolation of mononuclear cells, BM samples were diluted 1 : 2 in PBS and centrifuged 10 min at 1000 g. After centrifugation, 3 × 1 mL samples of BM plasma was removed and stored at −40 °C and later transferred to −80 °C.
# Tamoxifen and seven metabolites (Table 2) were quantified in human BM plasma samples collected ~ 8 months from tamoxifen initiation using our previously described method for serum [17]. In brief, protein precipitation (20 μL) of BM plasma was performed in acetonitrile containing deuterated internal standards. The supernatant (80 μL) was evaporated to dryness using nitrogen and subsequently reconstituted in 500 μL water : methanol (20 : 80, v:v). Subsequently, the samples were chromatographically separated on a Waters Acquity UPLC system (Milford, MA, USA) using a Waters BEH Phenyl column (100 mm × 2.1 mm, 1.7 μm particle size). The column was developed by a gradient elution of 0.01% aqueous solution of formic acid and methanol as weak and strong mobile phases, respectively. The compounds were subjected to atmospheric pressure photoionization and detected in positive ion mode using a Xevo TQ‐S tandem mass spectrometer (Waters, Taunton, MA, USA). All measured concentrations were multiplied by 3 to account for the dilution factor caused by adding 2 volumes of PBS during the isolation of mononuclear cells.
# ER = settings: fold higher than tamoxifen; cited from earlier work
# [2] = system: estrogen receptor‐positive breast cancer (BC) patients; test: Breast cancer-specific survival (BCSS) according to active metabolite thresholds, Kaplan-Meier and Cox regression; type: in vivo, human
# Excerpt: Patients included in this retrospective analysis were selected from subjects on a prospective trial investigating the value of Secondary Adjuvant (rescue) Treatment with docetaxel (Taxotere) [SATT (Secondary Adjuvant Treatment with Taxotere) study] for BC patients with disseminated tumor cells in their bone marrow (BM). […] Inclusion criteria were completion of primary surgery, completion of six cycles of anthracycline (AC)‐containing chemotherapy, and node‐positive or pT1c‐T4G2‐3 node‐negative BC with no earlier or other concomitant carcinoma.
# Thus, they reflect patients treated with endocrine treatment outside studies, according to national guidelines.
# Selection of patients younger than 45 years ensured that the patients received tamoxifen as a monotherapy for 5 years according to guidelines at the time of inclusion. […] Patients with plasma tamoxifen concentrations of < 40 nM were considered to be nonadherent to tamoxifen and excluded from both subgroups. As molecular subtyping was not available, the relevance of luminal subgroup status on active metabolite thresholds was investigated by creation of a Luminal B‐like subgroup based on tumor pathological surrogate markers available. […] All other patients were grouped as Luminal A [29, 30].
# Survival analyses included Kaplan–Meier and Cox regression analyses in which breast cancer‐specific survival (BCSS), defined as time from inclusion to death by BC, was used as the main outcome variable. The log‐rank test was applied to test for statistical difference in survival between groups. […] First, we fitted univariable Cox models. Next, in multivariable Cox regression models we included both clinically relevant variables and variables with a P‐value ≤ 0.2 from the univariable analysis. […] Distribution of metabolite concentrations and clinical variables was calculated and presented as means, medians, and frequencies. Interpatient variability in tamoxifen concentrations was calculated as coefficients of variation. Ratios between Z‐endoxifen and Z‐4OHtam were calculated by dividing the two metabolite concentrations and reported as means with range. All statistical analyses were conducted using IBM ® SPSS ® Statistics version 25 (SPSS, Inc., Chicago, IL, USA). Two‐tailed P‐values < 0.05 were considered statistically significant.
# [3] = set-up: method as in printed; settings: has been reported, ref not given; cited from earlier work
# breast cancer patients = system: breast cancer patients; set-up: method as in PMID 29183390; settings: thresholds Z-4OHtam 3.26 nM, Z-endoxifen 9 nM, learning set; cited from earlier work
# ER‐positive BC = system: ER‐positive BC; set-up: method as in PMID 15894097; settings: patients using tamoxifen; cited from earlier work
# [4] = all analyzed patients (n = 406)
smiles,measurement,setting,value
CC/C(=C(\c1ccccc1)c1ccc(OCC[N+](C)(C)[O-])cc1)c1ccccc1 [TamNoX],Mean concentration,[1],49.9 nM
same,Median concentration,[1],43.1 nM
CC/C(=C(\c1ccccc1)c1ccc(OCCN(C)C)cc1)c1ccc(O)cc1 [Z‐4'‐OHtam],Mean concentration,[1],6.9 nM
same,Median concentration,[1],6.6 nM
CC/C(=C(\c1ccccc1)c1ccc(OCCNC)cc1)c1ccccc1 [NDtam],Mean concentration,[1],694.9 nM
same,Median concentration,[1],655.8 nM
"CC/C(=C(\c1ccc(O)cc1)c1ccc(OCCN(C)C)cc1)c1ccccc1 [Z‐4OHtam, Z‐4‐hydroxy‐tamoxifen]",Affinity to the ER compared with tamoxifen,ER,100 × and ~ 100 ×
"CC/C(=C(\c1ccccc1)c1ccc(OCCN)cc1)c1ccccc1 [NNDDtam, N,N‐di‐desmethyl tamoxifen]",Mean concentration,[1],94.7 nM
"CC/C(=C(\c1ccc(O)cc1)c1ccc(OCCNC)cc1)c1ccccc1 [Z‐endoxifen, 4‐hydroxy‐N‐desmethyl tamoxifen]","Association of ordinal categories (low, moderate, high concentration) with BCSS",[2]; 'tamoxifen-only' subgroup,No significant associations
same,Association of threshold with BCSS,"[2]; 'tamoxifen-only' subgroup, uni-/multivariable",No uni‐/multivariable associations
same,HR for BCSS,"[2]; Z-endoxifen 9.00 nM threshold, all patients n = 406",0.63 (0.15-2.60)
same,"HR (95% CI) for BCSS, univariable","[2]; Z-endoxifen ≤ 9 nM vs > 9 nM, 'tamoxifen-only' subgroup n = 191",0.98 (0.23–4.15)
same,Association of concentrations below thresholds with BCSS,"[2]; all 406 patients, thresholds 9 nM Z-endoxifen, 3.26 nM Z-4OHtam",not associated with BCSS
same,Predictive value of thresholds in Luminal A / Luminal B-like subgroups,"[2]; post hoc analysis, thresholds 3.26 and 9 nM",not predictive of survival in either subgroup
same,Abundance in serum compared with Z-4OHtam,[3],up to 10 times
same,Hazard ratio (HR) of threshold in prior report,breast cancer patients,3.73
same,Affinity to the ER compared with tamoxifen,ER,100 × and ~ 100 ×
same,Median ratio between Z-endoxifen and Z-4OHtam concentrations,[1]; 'tamoxifen-only' subgroup,5.6
same,Range of ratio between Z-endoxifen and Z-4OHtam concentrations,[1]; 'tamoxifen-only' subgroup,1.9–14.9
same,Median ratio between Z-endoxifen and Z-4OHtam concentrations,[1]; [4],5.7
same,Range of ratio between Z-endoxifen and Z-4OHtam concentrations,[1]; [4],1.2–14.9
same,Mean concentration,[1],28.7 nM
same,Median concentration,[1],26.6 nM
"CC/C(=C(\c1ccccc1)c1ccc(OCCN(C)C)cc1)c1ccccc1 [Tam, tamoxifen]",Mean concentration,[1],365.9 nM
same,Median concentration,[1],341.2 nM
same,Patients experiencing a relapse within 10 years,ER‐positive BC,~ 25%
CCC(=C(c1ccccc1)c1ccc(OCCNC)cc1)c1ccc(O)cc1 [Z‐4'‐endoxifen],Mean concentration,[1],20.8 nM
same,Median concentration,[1],19.6 nM
